These compounds were tested against T1, Human thrombin (Homo sapiens, UniProt P00734) (assay: Inhibition of the protease activity of thrombin (chromogenic substrate S-2238)). Conditions: Table C; 3 nM thrombin, 125 μM S-2238, 10 min pre-incubation, RT.
T1 construct: purchased Haematologic Technologies Inc
Type: biochemical

| IC50 [µM] | Compound |
| --- | --- |
| > 1 | COC(=O)c1n[nH]c(NC(=O)c2ccoc2C)n1 [Cmpd 379, methyl 5-(2-methylfuran-3-amido)-1H-1,2,4-triazole-3-carboxylate] |
| > 1 | Nc1nc(C(=O)N2CCOCC2)nn1S(=O)(=O)c1ccccc1 [Cmpd 328, 1-(benzenesulfonyl)-3-[(morpholin-4-yl)carbonyl]-1H-1,2,4-triazol-5-amine] |
| < 0.1 | O=C(c1ccccc1)n1nc(-c2cccnc2)nc1NCc1ccc(F)cc1 [Cmpd 356, 1-benzoyl-N-[(4-fluorophenyl)methyl]-3-(pyridin-3-yl)-1H-1,2,4-triazol-5-amine] |
| 0.1 to 1 | Cc1ccc(C(=O)n2nc(-c3cccnc3)nc2N)cc1 [Cmpd 339, 1-[(4-methylphenyl)carbonyl]-3-(pyridin-3-yl)-1H-1,2,4-triazol-5-amine] |
| < 0.1 | CCC(=O)n1nc(-c2cccnc2)nc1NCc1ccc(Cl)cc1 [Cmpd 308, 1-(5-[(4-chlorophenyl)methyl]amino-3-(pyridin-3-yl)-1H-1,2,4-triazol-1-yl)propan-1-one] |
| < 0.1 | O=C(c1cccs1)n1nc(-c2cccnc2)nc1NCc1ccc(F)cc1 [Cmpd 403, N-[(4-fluorophenyl)methyl]-3-(pyridin-3-yl)-1-[(thiophen-2-yl)carbonyl]-1H-1,2,4-triazol-5-amine] |
| > 1 | Nc1nc(C(=O)N2CCOCC2)nn1S(=O)(=O)c1ccc(Cl)cc1 [Cmpd 337, 1-[(4-chlorobenzene)sulfonyl]-3-[(morpholin-4-yl)carbonyl]-1H-1,2,4-triazol-5-amine] |
| < 0.1 | CCCC(=O)n1nc(-c2cccnc2)nc1NCc1ccc(F)cc1 [Cmpd 316, 1-(5-[(4-fluorophenyl)methyl]amino-3-(pyridin-3-yl)-1H-1,2,4-triazol-1-yl)butan-1-one] |
| < 0.1 | O=C(c1ccccc1Cl)n1nc(-c2cccnc2)nc1NCc1ccc(F)cc1 [Cmpd 332, 1-[(2-chlorophenyl)carbonyl]-N-[(4-fluorophenyl)methyl]-3-(pyridin-3-yl)-1H-1,2,4-triazol-5-amine] |
| > 1 | O=C(c1cccs1)n1nc(-c2cccs2)nc1NCc1ccccc1 [Cmpd 412, N-benzyl-3-(thiophen-2-yl)-1-[(thiophen-2-yl)carbonyl]-1H-1,2,4-triazol-5-amine] |
| < 0.1 | CCCC(=O)n1nc(-c2cccnc2)nc1NCc1ccco1 [Cmpd 362, 1-5-[(furan-2-ylmethyl)amino]-3-(pyridin-3-yl)-1H-1,2,4-triazol-1-ylbutan-1-one] |
| < 0.1 | CC(=O)n1nc(-c2cccnc2)nc1NCc1ccc(C)cc1 [Cmpd 325, 1-(5-[(4-methylphenyl)methyl]amino-3-(pyridin-3-yl)-1H-1,2,4-triazol-1-yl)ethan-1-one] |
| 0.1 to 1 | CCC(=O)n1nc(-c2cccnc2)nc1NCc1ccc(OC)cc1 [Cmpd 324, 1-(5-[(4-methoxyphenyl)methyl]amino-3-(pyridin-3-yl)-1H-1,2,4-triazol-1-yl)propan-1-one] |
| > 1 | O=S(=O)(c1ccccc1)n1nc(-c2cccnc2)nc1NCc1cccs1 [Cmpd 327, 1-(benzenesulfonyl)-3-(pyridin-3-yl)-N-(thiophen-2-ylmethyl)-1H-1,2,4-triazol-5-amine] |
| < 0.1 | CCC(=O)n1nc(-c2cccs2)nc1NCc1ccccc1 [Cmpd 352, 1-[5-(benzylamino)-3-(thiophen-2-yl)-1H-1,2,4-triazol-1-yl]propan-1-one] |
| > 1 | O=C(Nc1n[nH]c(-c2ccco2)n1)c1ccccc1F [Cmpd 365, 2-fluoro-N-[5-(furan-2-yl)-1H-1,2,4-triazol-3-yl]benzamide] |
| < 0.1 | O=C(c1ccco1)n1nc(-c2cccnc2)nc1NCc1ccc(F)cc1 [Cmpd 402, N-[(4-fluorophenyl)methyl]-1-[(furan-2-yl)carbonyl]-3-(pyridin-3-yl)-1H-1,2,4-triazol-5-amine] |

Same assay, conditions: inhibition of the protease activity of thrombin

| IC50 [µM] | Compound |
| --- | --- |
| > 1 | CCNC(=O)n1nc(-c2cccnc2)nc1NCc1ccc(F)cc1 [Cmpd 296, N-ethyl-5-[(4-fluorophenyl)methyl]amino-3-(pyridin-3-yl)-1H-1,2,4-triazole-1-carboxamide] |
| < 0.1 | O=C(c1ccoc1)n1nc(-c2ccncc2)nc1NCc1ccccc1 [Cmpd 268, N-benzyl-1-[(furan-3-yl)carbonyl]-3-(pyridin-4-yl)-1H-1,2,4-triazol-5-amine] |
| < 0.1 | O=C(c1cccs1)n1nc(-c2ccncc2)nc1NCc1ccccc1 [Cmpd 288, N-benzyl-3-(pyridin-4-yl)-1-[(thiophen-2-yl)carbonyl]-1H-1,2,4-triazol-5-amine] |
| > 1 | CCN(C)C(=O)c1cc(-c2ccccn2)n(CCc2ccc(F)cc2)n1 [Cmpd 294, N-ethyl-1-[2-(4-fluorophenyl)ethyl]-N-methyl-5-(pyridin-2-yl)-1H-pyrazole-3-carboxamide] |

The remaining lines, values behind:

| Compound | IC50 [µM] |
| --- | --- |
| O=C(c1ccco1)n1nc(-c2ccccn2)nc1NCc1ccc(F)cc1 [Cmpd 210, N-[(4-fluorophenyl)methyl]-1-[(furan-2-yl)carbonyl]-3-(pyridin-2-yl)-1H-1,2,4-triazol-5-amine] | < 0.1 |
| COc1ccc(C(=O)n2nc(-c3ccccn3)nc2NCc2ccccc2)c(OC)c1 [Cmpd 235, N-benzyl-1-[(2,4-dimethoxyphenyl)carbonyl]-3-(pyridin-2-yl)-1H-1,2,4-triazol-5-amine] | < 0.1 |
| O=C(c1ccccc1Cl)n1nc(-c2ccncc2)nc1NCc1ccccc1 [Cmpd 245, N-benzyl-1-[(2-chlorophenyl)carbonyl]-3-(pyridin-4-yl)-1H-1,2,4-triazol-5-amine] | < 0.1 |
| O=C(c1cccs1)n1nc(-c2ccncc2)nc1NCc1ccc(F)cc1 [Cmpd 221, N-[(4-fluorophenyl)methyl]-3-(pyridin-4-yl)-1-[(thiophen-2-yl)carbonyl]-1H-1,2,4-triazol-5-amine] | 0.1 to 1 |
| COc1cccc(C(=O)n2nc(-c3ccccn3)nc2NCc2ccccc2)c1 [Cmpd 261, N-benzyl-1-[(3-methoxyphenyl)carbonyl]-3-(pyridin-2-yl)-1H-1,2,4-triazol-5-amine] | < 0.1 |
| O=C(c1ccoc1)n1nc(-c2ccccn2)nc1NCc1ccc(F)cc1 [Cmpd 212, N-[(4-fluorophenyl)methyl]-1-[(furan-3-yl)carbonyl]-3-(pyridin-2-yl)-1H-1,2,4-triazol-5-amine] | < 0.1 |
| Cc1ccc(C(=O)n2nc(-c3ccccn3)nc2NCc2ccccc2)c(F)c1 [Cmpd 249, N-benzyl-1-[(2-fluoro-4-methylphenyl)carbonyl]-3-(pyridin-2-yl)-1H-1,2,4-triazol-5-amine] | < 0.1 |

Same assay, conditions: inhibition of the protease activity of thrombin; class symbols a/b/c

| IC50 [µM] | Compound |
| --- | --- |
| 0.1 to 1 | O=C(CCc1ccccc1)n1nc(-c2ccncc2)nc1NCc1ccccc1 [Cmpd 149, 1-[5-(benzylamino)-3-(pyridin-4-yl)-1H-1,2,4-triazol-1-yl]-3-phenylpropan-1-one] |
| < 0.1 | CC(C)(C)C(=O)n1nc(-c2ccncc2)nc1NCc1ccccc1 [Cmpd 145, 1-[5-(benzylamino)-3-(pyridin-4-yl)-1H-1,2,4-triazol-1-yl]-2,2-dimethylpropan-1-one] |
| < 0.1 | O=C(c1ccccc1Cl)n1nc(-c2ccccn2)nc1NCc1ccc(F)cc1 [Cmpd 111, 1-[(2-chlorophenyl)carbonyl]-N-[(4-fluorophenyl)methyl]-3-(pyridin-2-yl)-1H-1,2,4-triazol-5-amine] |
| 0.1 to 1 | COc1ccc(CNc2nc(-c3ccccn3)nn2C(=O)c2ccco2)cc1 [Cmpd 123, 1-[(furan-2-yl)carbonyl]-N-[(4-methoxyphenyl)methyl]-3-(pyridin-2-yl)-1H-1,2,4-triazol-5-amine] |
| < 0.1 | CCC(=O)n1nc(-c2cccnc2)nc1SCc1ccc(F)cc1 [Cmpd 86, 1-(5-[(4-fluorophenyl)methyl]sulfanyl-3-(pyridin-3-yl)-1H-1,2,4-triazol-1-yl)propan-1-one] |
| 0.1 to 1 | O=C(c1ccccc1Cl)n1nc(-c2ccccn2)cc1NCc1ccc(F)cc1 [Cmpd 41] |
| < 0.1 | CC(C)C(=O)n1nc(-c2ccncc2)nc1NCc1ccccc1 [Cmpd 146, 1-[5-(benzylamino)-3-(pyridin-4-yl)-1H-1,2,4-triazol-1-yl]-2-methylpropan-1-one] |
| > 1 | Cc1ccc(C(=O)Nc2nc(C(=O)N3CCOCC3)n[nH]2)cc1 [Cmpd 185, 4-methyl-N-3-[(morpholin-4-yl)carbonyl]-1H-1,2,4-triazol-5-ylbenzamide] |
| > 1 | CN(C(=O)c1cc(-c2ccccn2)n(CCc2ccc(F)cc2)n1)c1ccccc1 [Cmpd 131, 1-[2-(4-fluorophenyl)ethyl]-N-methyl-N-phenyl-5-(pyridin-2-yl)-1H-pyrazole-3-carboxamide] |
| > 1 | CN(C(=O)c1cc(-c2ccccn2)nn1CCc1ccc(F)cc1)c1ccccc1 [Cmpd 130, 1-[2-(4-fluorophenyl)ethyl]-N-methyl-N-phenyl-3-(pyridin-2-yl)-1H-pyrazole-5-carboxamide] |
| > 1 | COc1ccc(C(=O)n2nc(-c3ccccc3F)cc2NCc2ccccc2)c(N)c1 [Cmpd 103, 1-[(2-amino-4-methoxyphenyl)carbonyl]-N-benzyl-3-(2-fluorophenyl)-1H-pyrazol-5-amine] |
| 0.1 to 1 | COc1ccc(C(=O)n2nc(-c3ccccn3)cc2NCc2ccccc2)c(N)c1 [Cmpd 105, 1-[(2-amino-4-methoxyphenyl)carbonyl]-N-benzyl-3-(pyridin-2-yl)-1H-pyrazol-5-amine] |
| > 1 | COC(=O)c1n[nH]c(NC(=O)c2ccccc2F)n1 [Cmpd 193, methyl 5-[(2-fluorobenzene)amido]-1H-1,2,4-triazole-3-carboxylate] |
| > 1 | Fc1ccc(CNc2nc(-c3cccnc3)n[nH]2)cc1 [Cmpd 4] |
| 0.1 to 1 | O=C(c1ccccc1Cl)n1nc(-c2cccnc2)nc1SCc1ccc(F)cc1 [Cmpd 181, 3-1-[(2-chlorophenyl)carbonyl]-5-[(4-fluorophenyl)methyl]sulfanyl-1H-1,2,4-triazol-3-ylpyridine] |
| > 1 | O=C(Nc1nc(C(=O)N2CCCC2)n[nH]1)c1ccccc1Cl [Cmpd 171, 2-chloro-N-3-[(pyrrolidin-1-yl)carbonyl]-1H-1,2,4-triazol-5-ylbenzamide] |
| > 1 | CC(=O)c1cn(-c2ccccn2)nc1NCc1ccc(F)cc1 [Cmpd 60, 1-(3-[(4-fluorophenyl)methyl]amino-1-(pyridin-2-yl)-1H-pyrazol-4-yl)ethan-1-one] |

— patent US20170326125A1, “MULTISUBSTITUTED AROMATIC COMPOUNDS AS INHIBITORS OF THROMBIN” (VERSEON CORPORATION, priority 2016, published 2017)
